Assay results taken from the supplement of paper PMC12463676, “Small-molecule dissolution of stress granules by redox modulation benefits ALS models” (Nature Chemical Biology, 2025).

Tests used:
lipoamide = compound: NC(=O)CCCCC1CCSS1 [lipoamide]; assay: thermal stability z-score vs DMSO; higher = more thermally stabilized by treatment; conditions: HeLa, lipoamide concentration 100 µM
Description: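 Cellular thermal proteome profiling in HeLa cells. Cells were treated with 100 µM lipoamide for 1 h, with or without 1 mM arsenate for a further 1 h, then heated to ten temperatures (37-66.3 °C), and soluble protein was quantified by TMT mass spectrometry relative to 0.1% DMSO controls. The thermal stability score (sum of log2 fold changes minus the abundance score) was transformed to a z-score; mean of n = 3 experiments.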

potassium arsenate = compound: O=[As]([O-])(O)O.[K+] [potassium arsenate]; assay: as above; conditions: HeLa; arsenate concentration 1 mM
Description: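 Cellular thermal proteome profiling in HeLa cells treated with 1 mM arsenate for 1 h (DMSO pretreatment), heated to ten temperatures (37-66.3 °C). Soluble protein was quantified by TMT mass spectrometry relative to DMSO controls; the thermal stability score was transformed to a z-score; mean of n = 3 experiments.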

[1] = arsenate co-treatment: 1 mM arsenate 1 h
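Also: each temperature applied for 3 min, abundance score taken as mean log2 fold change at the two lowest temperatures, z-score obtained by mean subtraction and division by SD.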

Chain of UniProt P62877 (P62877 whole entry, looked up): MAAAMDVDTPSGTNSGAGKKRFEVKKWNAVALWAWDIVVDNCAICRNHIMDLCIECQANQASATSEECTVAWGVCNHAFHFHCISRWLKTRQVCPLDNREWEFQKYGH
Chain of UniProt Q8N2W9 (Q8N2W9 whole entry): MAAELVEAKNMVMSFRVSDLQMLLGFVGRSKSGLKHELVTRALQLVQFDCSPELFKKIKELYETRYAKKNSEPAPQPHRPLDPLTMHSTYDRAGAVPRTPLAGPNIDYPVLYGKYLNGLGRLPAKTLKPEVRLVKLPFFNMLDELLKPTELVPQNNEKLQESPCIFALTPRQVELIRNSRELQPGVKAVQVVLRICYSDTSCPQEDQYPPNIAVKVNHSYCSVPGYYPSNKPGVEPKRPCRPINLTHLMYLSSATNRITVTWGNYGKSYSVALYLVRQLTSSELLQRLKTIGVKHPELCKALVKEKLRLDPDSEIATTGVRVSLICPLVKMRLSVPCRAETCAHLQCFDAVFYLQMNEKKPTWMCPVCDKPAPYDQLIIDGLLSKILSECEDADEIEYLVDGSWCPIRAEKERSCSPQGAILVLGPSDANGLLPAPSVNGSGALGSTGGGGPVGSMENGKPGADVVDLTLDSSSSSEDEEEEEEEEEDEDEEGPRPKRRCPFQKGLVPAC
Chain of UniProt Q9UHG3 (Q9UHG3 whole entry): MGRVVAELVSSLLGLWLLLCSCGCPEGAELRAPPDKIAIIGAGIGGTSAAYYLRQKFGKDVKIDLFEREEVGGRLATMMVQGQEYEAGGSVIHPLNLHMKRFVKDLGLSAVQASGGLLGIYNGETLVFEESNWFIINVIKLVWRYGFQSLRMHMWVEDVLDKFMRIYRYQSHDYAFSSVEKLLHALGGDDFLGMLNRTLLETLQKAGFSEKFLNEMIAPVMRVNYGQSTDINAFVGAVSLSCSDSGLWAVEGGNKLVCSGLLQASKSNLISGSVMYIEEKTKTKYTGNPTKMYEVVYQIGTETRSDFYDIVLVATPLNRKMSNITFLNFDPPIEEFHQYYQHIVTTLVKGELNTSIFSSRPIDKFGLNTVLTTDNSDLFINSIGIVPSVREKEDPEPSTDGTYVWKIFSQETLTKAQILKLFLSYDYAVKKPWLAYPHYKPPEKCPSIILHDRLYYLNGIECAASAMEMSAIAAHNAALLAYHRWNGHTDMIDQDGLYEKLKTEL
Chain of UniProt Q8IWV8 (Q8IWV8 whole entry): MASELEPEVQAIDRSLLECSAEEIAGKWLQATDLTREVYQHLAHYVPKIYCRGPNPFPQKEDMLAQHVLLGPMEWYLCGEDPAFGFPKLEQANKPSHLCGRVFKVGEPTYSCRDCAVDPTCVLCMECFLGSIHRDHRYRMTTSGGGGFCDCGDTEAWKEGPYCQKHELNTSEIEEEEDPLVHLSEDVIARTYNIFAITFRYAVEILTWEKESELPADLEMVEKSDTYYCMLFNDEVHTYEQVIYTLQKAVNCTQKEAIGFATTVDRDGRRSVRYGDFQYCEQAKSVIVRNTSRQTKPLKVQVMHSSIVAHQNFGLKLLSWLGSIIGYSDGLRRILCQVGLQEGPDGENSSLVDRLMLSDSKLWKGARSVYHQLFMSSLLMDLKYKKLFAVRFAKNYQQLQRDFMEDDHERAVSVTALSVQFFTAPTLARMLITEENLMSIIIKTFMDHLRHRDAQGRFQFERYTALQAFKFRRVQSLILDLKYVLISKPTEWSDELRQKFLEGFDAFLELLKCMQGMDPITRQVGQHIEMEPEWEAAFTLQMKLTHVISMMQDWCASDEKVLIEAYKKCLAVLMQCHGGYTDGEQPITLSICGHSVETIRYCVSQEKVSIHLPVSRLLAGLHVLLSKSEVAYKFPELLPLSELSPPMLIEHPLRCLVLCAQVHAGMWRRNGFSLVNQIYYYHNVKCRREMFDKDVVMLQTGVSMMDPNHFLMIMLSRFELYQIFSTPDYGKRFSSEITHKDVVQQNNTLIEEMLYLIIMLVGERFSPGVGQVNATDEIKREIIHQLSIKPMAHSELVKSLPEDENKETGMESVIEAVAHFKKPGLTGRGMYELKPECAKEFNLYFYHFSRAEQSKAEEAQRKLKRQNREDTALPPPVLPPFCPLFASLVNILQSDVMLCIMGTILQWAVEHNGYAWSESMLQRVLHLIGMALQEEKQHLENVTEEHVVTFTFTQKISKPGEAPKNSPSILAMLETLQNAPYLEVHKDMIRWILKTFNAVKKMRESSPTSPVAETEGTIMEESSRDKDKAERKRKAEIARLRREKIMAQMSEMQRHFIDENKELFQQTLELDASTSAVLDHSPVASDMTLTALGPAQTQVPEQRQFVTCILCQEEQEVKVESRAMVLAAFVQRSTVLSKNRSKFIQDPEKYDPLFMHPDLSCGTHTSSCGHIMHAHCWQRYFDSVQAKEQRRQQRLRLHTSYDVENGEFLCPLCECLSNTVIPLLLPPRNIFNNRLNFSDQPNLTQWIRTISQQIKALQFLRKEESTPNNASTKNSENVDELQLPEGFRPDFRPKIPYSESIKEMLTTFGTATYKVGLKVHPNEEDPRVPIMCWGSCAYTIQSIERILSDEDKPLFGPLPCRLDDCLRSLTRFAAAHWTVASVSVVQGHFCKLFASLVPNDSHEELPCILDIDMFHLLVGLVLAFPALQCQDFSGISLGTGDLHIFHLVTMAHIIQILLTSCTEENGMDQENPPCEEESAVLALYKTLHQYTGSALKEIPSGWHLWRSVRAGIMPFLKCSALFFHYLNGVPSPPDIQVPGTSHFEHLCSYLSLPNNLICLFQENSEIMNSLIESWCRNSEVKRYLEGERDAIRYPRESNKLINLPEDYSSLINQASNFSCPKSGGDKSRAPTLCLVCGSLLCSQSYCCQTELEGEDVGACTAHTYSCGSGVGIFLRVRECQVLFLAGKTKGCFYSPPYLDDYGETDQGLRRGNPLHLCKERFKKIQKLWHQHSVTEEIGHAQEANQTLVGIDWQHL
Chain of UniProt Q99574 (Q99574 whole entry): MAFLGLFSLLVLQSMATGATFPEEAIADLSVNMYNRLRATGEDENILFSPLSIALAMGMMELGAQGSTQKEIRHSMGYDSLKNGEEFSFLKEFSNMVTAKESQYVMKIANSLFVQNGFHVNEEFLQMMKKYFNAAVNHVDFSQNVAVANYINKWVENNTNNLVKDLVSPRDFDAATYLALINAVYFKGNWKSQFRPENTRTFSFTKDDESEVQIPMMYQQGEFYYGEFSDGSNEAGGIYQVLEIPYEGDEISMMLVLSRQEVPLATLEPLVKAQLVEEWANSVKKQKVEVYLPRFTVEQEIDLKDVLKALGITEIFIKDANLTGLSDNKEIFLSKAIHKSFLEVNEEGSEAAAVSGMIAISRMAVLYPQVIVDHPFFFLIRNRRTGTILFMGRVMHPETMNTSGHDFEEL
Chain of UniProt Q13620 (Q13620 whole entry): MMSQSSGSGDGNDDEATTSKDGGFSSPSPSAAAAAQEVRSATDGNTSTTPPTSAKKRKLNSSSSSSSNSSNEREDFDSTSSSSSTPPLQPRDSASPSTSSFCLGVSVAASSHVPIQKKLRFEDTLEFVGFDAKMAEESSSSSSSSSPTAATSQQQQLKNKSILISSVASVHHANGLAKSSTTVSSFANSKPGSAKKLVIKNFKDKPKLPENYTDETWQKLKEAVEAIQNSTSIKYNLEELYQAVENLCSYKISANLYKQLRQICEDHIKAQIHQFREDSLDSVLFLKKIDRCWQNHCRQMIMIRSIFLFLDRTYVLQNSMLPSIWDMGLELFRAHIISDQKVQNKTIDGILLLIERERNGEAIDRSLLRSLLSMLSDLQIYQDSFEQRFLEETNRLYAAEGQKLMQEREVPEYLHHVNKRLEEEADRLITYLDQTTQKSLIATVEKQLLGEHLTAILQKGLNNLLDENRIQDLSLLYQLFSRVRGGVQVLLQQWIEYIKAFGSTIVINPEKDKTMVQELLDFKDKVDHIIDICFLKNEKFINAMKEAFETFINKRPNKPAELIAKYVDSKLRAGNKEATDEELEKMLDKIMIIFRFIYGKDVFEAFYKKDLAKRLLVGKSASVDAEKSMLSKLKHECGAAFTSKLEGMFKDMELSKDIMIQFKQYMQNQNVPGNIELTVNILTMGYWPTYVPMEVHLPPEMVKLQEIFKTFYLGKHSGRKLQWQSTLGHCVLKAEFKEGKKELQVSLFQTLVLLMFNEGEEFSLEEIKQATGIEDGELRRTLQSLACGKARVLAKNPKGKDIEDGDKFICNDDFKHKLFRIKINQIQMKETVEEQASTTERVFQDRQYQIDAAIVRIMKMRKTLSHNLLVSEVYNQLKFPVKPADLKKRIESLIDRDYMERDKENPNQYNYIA
Chain of UniProt Q07955 (Q07955 whole entry): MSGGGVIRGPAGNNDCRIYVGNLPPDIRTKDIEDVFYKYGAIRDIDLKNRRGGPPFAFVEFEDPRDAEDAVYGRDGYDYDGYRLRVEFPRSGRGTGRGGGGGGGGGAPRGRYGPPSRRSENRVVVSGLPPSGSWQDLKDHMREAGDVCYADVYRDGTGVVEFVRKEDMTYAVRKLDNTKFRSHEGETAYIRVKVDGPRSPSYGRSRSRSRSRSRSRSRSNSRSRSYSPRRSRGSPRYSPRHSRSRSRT
Chain of UniProt Q8TDH9 (Q8TDH9 whole entry): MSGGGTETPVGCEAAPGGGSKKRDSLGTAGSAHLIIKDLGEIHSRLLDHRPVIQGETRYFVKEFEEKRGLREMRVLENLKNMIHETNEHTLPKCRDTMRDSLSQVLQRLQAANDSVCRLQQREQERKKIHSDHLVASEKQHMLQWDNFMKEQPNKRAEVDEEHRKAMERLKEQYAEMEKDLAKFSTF
Chain of UniProt P99999 (P99999 whole entry): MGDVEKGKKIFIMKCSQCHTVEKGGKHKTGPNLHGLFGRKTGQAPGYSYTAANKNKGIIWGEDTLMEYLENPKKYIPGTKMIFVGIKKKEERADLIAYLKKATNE
Chain of UniProt Q96CS7 (Q96CS7 whole entry): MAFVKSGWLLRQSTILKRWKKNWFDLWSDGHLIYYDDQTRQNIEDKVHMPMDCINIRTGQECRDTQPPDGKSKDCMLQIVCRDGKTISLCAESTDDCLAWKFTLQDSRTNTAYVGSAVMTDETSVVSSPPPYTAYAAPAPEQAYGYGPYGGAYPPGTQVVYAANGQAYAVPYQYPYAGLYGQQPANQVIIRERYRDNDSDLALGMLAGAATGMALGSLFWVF

Work on BLOC1S5 (UniProt Q8TDH9) yielded a thermal stability z-score (lipoamide; [1]) of 0.19, a thermal stability z-score (lipoamide; arsenate co-treatment: none) of 0.0962 and a thermal stability z-score (potassium arsenate) of 0.446.

Work on PIAS4 (UniProt Q8N2W9) yielded a thermal stability z-score (lipoamide; [1]) of 0.144, a thermal stability z-score (lipoamide; arsenate co-treatment: none) of 0.2 and a thermal stability z-score (potassium arsenate) of 0.136.

GGPS1 (UniProt O95749) showed a thermal stability z-score (lipoamide; [1]) of 0.498, a thermal stability z-score (lipoamide; arsenate co-treatment: none) of 0.521 and a thermal stability z-score (potassium arsenate) of -0.212.

With PCYOX1 (UniProt Q9UHG3) the thermal stability z-score (lipoamide; [1]) was 0.606, the thermal stability z-score (lipoamide; arsenate co-treatment: none) was -0.723 and the thermal stability z-score (potassium arsenate) was 0.0412.

Work on SHTN1 (UniProt A0MZ66) yielded a thermal stability z-score (lipoamide; [1]) of 1.1, a thermal stability z-score (lipoamide; arsenate co-treatment: none) of 0.75 and a thermal stability z-score (potassium arsenate) of 1.25.

SEL1L (UniProt Q9UBV2) was tested, and the thermal stability z-score (lipoamide; [1]) was -2.16, the thermal stability z-score (lipoamide; arsenate co-treatment: none) was -1.76 and the thermal stability z-score (potassium arsenate) was 0.614.

In the case of REXO2 (UniProt Q9Y3B8), the thermal stability z-score (lipoamide; [1]) is reported as 0.295, the thermal stability z-score (lipoamide; arsenate co-treatment: none) is reported as 0.536 and the thermal stability z-score (potassium arsenate) is reported as 0.192.

For BCAR3 (UniProt O75815), the thermal stability z-score (lipoamide; [1]) was -0.0123, the thermal stability z-score (lipoamide; arsenate co-treatment: none) was -0.0689 and the thermal stability z-score (potassium arsenate) was -0.106.

For RRN3 (UniProt Q9NYV6), the thermal stability z-score (lipoamide; [1]) was -0.321, the thermal stability z-score (lipoamide; arsenate co-treatment: none) was -0.104 and the thermal stability z-score (potassium arsenate) was -2.42.

CUL4B (UniProt Q13620) showed a thermal stability z-score (lipoamide; [1]) of 0.0797, a thermal stability z-score (lipoamide; arsenate co-treatment: none) of -0.0817 and a thermal stability z-score (potassium arsenate) of -0.051.

NIFK (UniProt Q9BYG3) was tested, and the thermal stability z-score (lipoamide; [1]) was 1.5, the thermal stability z-score (lipoamide; arsenate co-treatment: none) was 0.467 and the thermal stability z-score (potassium arsenate) was -1.78.

Target UBR2 (UniProt Q8IWV8) has a thermal stability z-score (lipoamide; [1]) of 0.13, a thermal stability z-score (lipoamide; arsenate co-treatment: none) of 0.182 and a thermal stability z-score (potassium arsenate) of 0.444.

In the case of ALDH18A1 (UniProt P54886), the thermal stability z-score (lipoamide; [1]) is reported as -0.0576, the thermal stability z-score (lipoamide; arsenate co-treatment: none) is reported as 0.0663 and the thermal stability z-score (potassium arsenate) is reported as -1.34.

TYW1 (UniProt Q9NV66) was tested, and the thermal stability z-score (lipoamide; [1]) was -0.0973, the thermal stability z-score (lipoamide; arsenate co-treatment: none) was 0.228 and the thermal stability z-score (potassium arsenate) was 1.04.

For RBX1 (UniProt P62877), the thermal stability z-score (lipoamide; [1]) was -0.311, the thermal stability z-score (lipoamide; arsenate co-treatment: none) was 0.0681 and the thermal stability z-score (potassium arsenate) was 0.163.

With PRRC1 (UniProt Q96M27) the thermal stability z-score (lipoamide; [1]) was 0.101, the thermal stability z-score (lipoamide; arsenate co-treatment: none) was 0.135 and the thermal stability z-score (potassium arsenate) was -0.142.

Target ZDHHC13 (UniProt Q8IUH4) has a thermal stability z-score (lipoamide; [1]) of 0.0485, a thermal stability z-score (lipoamide; arsenate co-treatment: none) of -0.0918 and a thermal stability z-score (potassium arsenate) of 0.144.

For SRSF1 (UniProt Q07955), the thermal stability z-score (lipoamide; [1]) was 2.02, the thermal stability z-score (lipoamide; arsenate co-treatment: none) was 0.446 and the thermal stability z-score (potassium arsenate) was -0.17.

For RPL19 (UniProt P84098), the thermal stability z-score (lipoamide; [1]) was 0.269, the thermal stability z-score (lipoamide; arsenate co-treatment: none) was -0.195 and the thermal stability z-score (potassium arsenate) was -1.08.

With FNDC3B (UniProt Q53EP0) the thermal stability z-score (lipoamide; [1]) was -0.593, the thermal stability z-score (lipoamide; arsenate co-treatment: none) was 0.623 and the thermal stability z-score (potassium arsenate) was 3.13.

In the case of CYCS (UniProt P99999), the thermal stability z-score (lipoamide; [1]) is reported as 0.873, the thermal stability z-score (lipoamide; arsenate co-treatment: none) is reported as 0.819 and the thermal stability z-score (potassium arsenate) is reported as -0.152.

DCTN2 (UniProt Q13561) showed a thermal stability z-score (lipoamide; [1]) of 0.321, a thermal stability z-score (lipoamide; arsenate co-treatment: none) of 0.719 and a thermal stability z-score (potassium arsenate) of 0.914.

With KIF21A (UniProt Q7Z4S6) the thermal stability z-score (lipoamide; [1]) was -0.586, the thermal stability z-score (lipoamide; arsenate co-treatment: none) was -0.117 and the thermal stability z-score (potassium arsenate) was 0.269.

In the case of UBR7 (UniProt Q8N806), the thermal stability z-score (lipoamide; [1]) is reported as -0.392, the thermal stability z-score (lipoamide; arsenate co-treatment: none) is reported as -0.575 and the thermal stability z-score (potassium arsenate) is reported as 0.457.

SERPINI1 (UniProt Q99574) showed a thermal stability z-score (lipoamide; [1]) of -0.495, a thermal stability z-score (lipoamide; arsenate co-treatment: none) of 0.0132 and a thermal stability z-score (potassium arsenate) of 0.709.

Target ASS1 (UniProt P00966) has a thermal stability z-score (lipoamide; [1]) of -0.416, a thermal stability z-score (lipoamide; arsenate co-treatment: none) of 0.107 and a thermal stability z-score (potassium arsenate) of -1.34.

PLEKHB2 (UniProt Q96CS7) gave a thermal stability z-score (lipoamide; [1]) of -0.698, a thermal stability z-score (lipoamide; arsenate co-treatment: none) of -0.101 and a thermal stability z-score (potassium arsenate) of 0.675.

Work on DPYSL2 (UniProt Q16555) yielded a thermal stability z-score (lipoamide; [1]) of 0.645, a thermal stability z-score (lipoamide; arsenate co-treatment: none) of 0.115 and a thermal stability z-score (potassium arsenate) of -0.691.

With OSMR (UniProt Q99650) the thermal stability z-score (lipoamide; [1]) was -1.48, the thermal stability z-score (lipoamide; arsenate co-treatment: none) was -0.64 and the thermal stability z-score (potassium arsenate) was 1.55.

Target UBE2G1 (UniProt P62253) has a thermal stability z-score (lipoamide; [1]) of 0.288, a thermal stability z-score (lipoamide; arsenate co-treatment: none) of 0.286 and a thermal stability z-score (potassium arsenate) of 0.0592.
